Measured values as given in US5561122A, “Combretastatin A-4 prodrug” (Arizona Board of Regents acting on behalf of Arizona State …, priority 1994, dated 1996).
Where two headings read alike, the source gives them in different places.

Columns and labels:
[1] = tested on: NCI 60 cell line panel (human tumor cell lines); assay: NCI 60 cell line full-panel screen (growth inhibition) with COMPARE analysis; format: cell-based; details: for GI50: Homo sapiens, 60 cell, read-out: mean panel GI50 concentration
From the text: The following measures are used to express drug activity by giving the drug dose which reduces cell growth to a specified percentage of growth:
ED50 (P388) and GI50 (HTCL) are the drug doses needed to reduce the percent growth to 50%. There is no mathematical difference between ED50 and GI50, which are both calculated using the same formula. The only difference is historical usage.
Total Growth Inhibition ("TGI") is the drug dose needed to yield zero percent growth, i.e., just as many cells at the end of the experiment as were present in the beginning. Whether just as many cells were killed as were produced (steady state), or no growth occurred (total inhibition), cannot be distinguished.
Lethal Concentration 50% ("LC50 ") is the drug concentration which reduces growth to -50%, i.e., removes half of the cells originally present at the beginning of the experiment.
Each drug is tested at five (5) doses: 100 - 10 - 1 - 0.1 -0.01 μg/ml. Percent Growths are calculated for each dose. The two (or three) doses with growth values above, below, (or near to) 50% growth are used to calculate the ED50 /GI50 using a linear regression formula. The log of the dose is used during the regression computation. If no dose yields a growth value under 50%, the results are expressed as: ED50 >(highest dose). If no dose yields growth higher than 50% growth, then ED50 <(lowest dose). Similar calculations are performed for the TGI at 0% growth, and at -50% growth for the LC50.
At the start of an experiment, cells from the in vitro cell cultures are inoculated into the appropriate tubes or microtiter plates. One set of control tubes/plates is immediately counted to determine the number of cells at the start of the experiment. This is the "baseline count" or "Tzero reading". At the end of the experiment (48 hours later) a second set of control tubes/plates is analyzed to determine the "Control Growth" value. The growth (or death) of cells relative to the initial quantity of cells is used to define the "Percent of Growth".
For further information about the testing protocols and procedures see Anne Monks et al., "Feasibility of a High-Flux Anticancer Drug Screen Using a Diverse Panel of Cultured Human Tumor Cell Lines", 83 J. Nat. Cancer Inst. No. 11, pp. 757-66 (5 Jun. 1991) and […], "Status of the NCI Preclinical Antitumor Drug Discovery Screen" 3 Princ & Practice of Oncology Updates No. 10, pp. 1-12 (October 1989).
By definition a pro-drug is a precursor which will undergo metabolic activation in vivo to the active drug. […] Combretastatin A-4 (1a) and prodrug (1h) were then comparatively evaluated against the full-panel NCI screen (M. R. Boyd, "Status of the NCI Preclinical Antitumor Drug Discovery Screen: Implications for Selection of New Agents for Clinical trial," 3 Cancer: Principles and Practice of Oncology Updates No. 10, pp1-12 (1989) and M. R. Boyd et al. "The Future of New Drug Development. Section I. Introduction to Cancer Therapy," Current Therapy in Oncology. Philadelphia: Decker (1993)). […]

[2] = stability / reaction with water; format: physicochemical
tubulin = details: Hamel et al., 1989; cited from earlier work
cancer cell = details: Von Hoff et al., 1993; cited from earlier work

COc1ccc(/C=C\c2cc(OC)c(OC)c(OC)c2)cc1OP(=O)(O)O [Compound 1h, Disodium combretastatin A-4 3-O-Phosphate]
GI50 ([1]; 48 h): 6.89 nM
Pearson correlation coefficient for the differential cytotoxicity profiles (TGI-COMPARE) ([1]; combretastatin A-4 (1a) vs its prodrug (1h)): 0.91
cell growth inhibitory activity ([1]; compared with combretastatin (1a)): comparable
in vitro activity levels in the NCI 60 cell line panel ([1]; compared with combretastatin A-4, activity level and COMPARE algorithm): reasonably similar

COc1ccc(/C=C\c2cc(OC)c(OC)c(OC)c2)cc1OC(=O)CCC(=O)O [Compound 1d]
reaction with water [2]: regenerated combretastatin A-4
aqueous solubility (in words) (water solubility): essentially insoluble

COc1ccc(/C=C\c2cc(OC)c(OC)c(OC)c2)cc1OP(=O)(O)O [Compound 1g, Dipotassium combretastatin A-4 3-O-phosphate]
stability (in words) [2]: most stable

COc1ccc(/C=C\c2cc(OC)c(OC)c(OC)c2)cc1O [Compound 1c]
reaction with water [2]: regenerated combretastatin A-4

COc1ccc(/C=C\c2cc(OC)c(OC)c(OC)c2)cc1O [Compound 1b]
reaction with water [2]: regenerated combretastatin A-4

COc1ccc(/C=C\c2cc(OC)c(OC)c(OC)c2)cc1O [Compound 1a, combretastatin A-4]
tubulin assembly inhibition (tubulin): potent
GI50 ([1]; full-panel NCI screen, mean over panel, quadruplicate, 48 hours): 6.61 nM
cancer cell growth inhibition (cancer cell): potent

COc1ccc(/C=C\c2cc(OC)c(OC)c(OC)c2)cc1OP(=O)(O)O [Compound 1f, Ammonium hydrogen combretastatin A-4 3-O Phosphate]
aqueous solubility (in words) (water solubility): most soluble
